Source: patent US8178579B2, “Dioxanes and uses thereof” (President and Fellows of Harvard College, priority 2001, dated 2012)
“Also recorded” adds a separate entry of the source.

Columns and labels:
[1] = test system: α-tubulin deacetylation; assay: acetylated α-tubulin in cells (AcTubulin cytoblot, immunofluorescence, Western blot); assay type: cell-based, human; conditions: for effect on tubulin deacetylation / α-tubulin acetylation in cells: A549 (also BS-C-1) cells, tubacin/JCWII114, niltubacin/JCWII153 2 μM, TSA 100 nM-4 μM, library ~2-5 μM, 18 h
Description: (§1) A549 cells were seeded at a density of 4,000 cells/50 μl in DMEM+ in white tissue culture-treated 384-well plates (Nalge Nunc) using a Multidrop 384 liquid dispenser (Labsystems). Library small molecules were pinned twice (100-150 nl/pin) from ˜1 mM stock solutions (DMSO) and incubated for 18 hours. For the ITSA1+AcTubulin assay, ITSA1 (50 μM) was added four hours after pin-transfer of library molecules. Media was aspirated with a 16-channel wand. For the acetylated α-tubulin cytoblot (AcTubulin), 40 μl/well of fixation solution (3.7% formaldehyde (1:10 from 37% stock) in Tris-buffered saline (TBS, 0.15 M NaCl, 0.02 M Tris-Cl, pH 7.4) was added and plates incubated for twenty minutes at room temperature. After aspiration, 30 μl 100% methanol (−20° C.) was added and incubated for five minutes at room temperature. After aspirating and washing three times with 90 μl of antibody dilution buffer (ADB, TBS/2% bovine serum albumin, 0.1% TritonX-100) the wells were blocked for twenty minutes in ADB. After aspirating, 20 μl/well of ADB containing anti-acetylated α-tubulin antibody (mouse; 1:1000) and anti-mouse IgG horseradish peroxidase (HRP)-conjugated antibody (1:750) was added and incubated overnight (4° C.). For the anti-acetyl lysine cytoblot (AcLysine), 40 μl/well of fixation solution (95% ethanol/5% acetic acid, −20° C.) was added and plates incubated for five minutes at room temperature. Wells were aspirated, washed, and blocked in ADB as for the AcTubulin protocol. After aspirating, 20 μl/well of ADB containing anti-acetylated lysine (rabbit; 1:375) and anti-rabbit IgG-HRP conjugated antibody (1:750) was added and incubated overnight (4° C.). For the anti-acetylated histone H3 (AcHistH3) and anti-acetylated histone H4 (AcHistH4) cytoblots, cells were fixed, washed, and blocked in ADB as for the AcLysine cytoblot. After aspirating, 20 μl/well of ADB containing anti-acetylated histone H3 antibody (rabbit, 1:500) or anti-acetylated histone H4 antibody (rabbit, 1:500) was added and incubated for two hours at room temperature. Wells were aspirated and washed twice with 80 μl of ADB. After aspirating, 20 μl/well of ADB containing anti-rabbit IgG-HRP conjugated antibody (1:1000) was added and incubated for two hours (room temperature). For the AcTubulin and AcLysine assays, plates were washed three times with TBS before adding 20 μl/well of enhanced chemiluminescent (ECL) mixture. For the AcHistH3 and AcHistH4 assays, plates were washed three times with 80 μl TBS with 1% Triton X-100 and once with 80 μl TBS before adding 20 μl/well of ECL mixture. Plates were read on an Analyst plate reader (LJL Biosystems) with an integration time of 0.1 seconds.
(§2) 1,3-dioxanes from single polystyrene macrobeads were prepared as 1-2 mM stock solutions in DMSO as described [Hubbert, C., Guardiola, A., Shao, R., Kawaguchi, Y., Ito, A., Nixon, A., Yoshida, M., Wang, X. F., and Yao, T. P. (2002). HDAC6 is a microtubule-associated deacetylase. Nature 417, 455-458]. Bead decoding and structure determination were as described [See for example, Hubbert, C., Guardiola, A., Shao, R., Kawaguchi, Y., Ito, A., Nixon, A., Yoshida, M., Wang, X. F., and Yao, T. P. (2002). HDAC6 is a microtubule-associated deacetylase. Nature 417, 455-458; and Piperno, G., LeDizet, M., and Chang, X. J. (1987). Microtubules containing acetylated alpha-tubulin in mammalian cells in culture. J. Cell Biol. 104, 289-302]. Small molecules (˜2-5 μM) of interest were retested using a sample from the plate of stock solutions by fluorescence microscopy and comparison to the effects of trichostatin (300 nM to 1 μM).
(§3) A549 cells were seeded at a density of 50,000/200 μl in DMEM+ on the surface of glass coverslips on top of Parafilm in a 10 cm dish and allowed to attach overnight. For detection of acetylated α-tubulin, cells were permeabilized and fixed with 100 mM K-PIPES, pH 6.8, 10 mM EGTA, 1 mM MgCl2, 0.2% triton X-100, 0.2% glutaraldehyde for fifteen minutes. […]

[2] = test system: histone deacetylation; assay: acetylated lysine / acetylated histone in cells (AcLysine cytoblot, immunofluorescence, Western blot); assay type: cell-based, human; conditions: A549 (also BS-C-1) cells, tubacin, niltubacin 2 μM, histacin 20 μM, library ~2-5 μM, 18 h
Description: as §1, §2, §3

| SMILES | effect on tubulin deacetylation / α-tubulin acetylation in cells [1] | effect on histone deacetylation / lysine or histone acetylation in cells [2] | effect on tubulin deacetylation / α-tubulin acetylation in cells ([1]; listed as 415 N3) | effect on tubulin deacetylation / α-tubulin acetylation in cells ([1]; listed as JCWII114) | concentration at which α-tubulin acetylation is increased ([1]; A549 cells, 4 h, data not shown) | effect on histone deacetylation / lysine or histone acetylation in cells ([2]; listed as 415 N3) | effect on histone deacetylation / lysine or histone acetylation in cells ([2]; listed as JCWII114) |
| --- | --- | --- | --- | --- | --- | --- | --- |
| CC(/C=C/C(=O)NO)=C\[C@@H](C)C(=O)c1ccc(N(C)C)cc1 [TSA, trichostatin A, reference compound] | an inhibitor of both α-tubulin and histone deacetylation; also recorded: Increased α-tubulin acetylation upon TSA (4 μM) treatment (24 h) | an inhibitor of both α-tubulin and histone deacetylation | – | – | – | – | – |
| O=C(CCCCCCC(=O)Nc1ccc([C@@H]2OC(c3ccc(CO)cc3)C[C@H](CSc3nc(-c4ccccc4)c(-c4ccccc4)o3)O2)cc1)NO (stereo partly drawn) [tubacin] | Increased acetylated α-tubulin induced by tubacin; also recorded: Reversibility of tubacin-induced (2 μM; 5 h) α-tubulin acetylation; also recorded: strongly increased α-tubulin acetylation levels; also recorded: potent (FIG. 41E), selective (FIG. 41F; FIG. 46A), and reversible (FIG. 46B) inhibitor of α-tubulin deacetylation; also recorded: always increased α-tubulin acetylation levels | did not affect histone acetylation | strongly increased α-tubulin acetylation | potently and selectively inhibited tubulin deacetylation | ≥ 125 nM | no effect on lysine acetylation | no visible effect on histone deacetylation |
